For this assay, the system named is Vaccinia virus. Briefly: The minimum inhibitory concentration required to reduce vaccinia virus induced cytopathogenicity in primary rabbit kidney cells by 50%. Format: functional. Particulars: Orthopoxvirus vaccinia. On the technique in general: Cytopathic effects are the visible damage that an infection or toxin causes in cultured cells.

The structures appear in SMILES notation. ≈ marks a conversion by molar mass, not a printed value.

For the molecule `Nc1cc2[nH]ccc2c(O)n1`, the MIC worked out at 400 µg/mL (≈ 2680 µM). In the case of `Nc1ncnc2c1ncn2C[C@H](O)CO` [(S)-DHPA] it was 10 µg/mL (≈ 47.8 µM).

In turn, `Nc1cc2[nH]cnc2c(=O)[nH]1` [DEZAGUANINE] came in with an MIC of 0.1 µg/mL (≈ 0.666 µM). In the case of `NC(=O)c1ncn([C@@H]2O[C@H](CO)[C@@H](O)[C@H]2O)n1` [RIBAVIRIN] it was 40 µg/mL (≈ 164 µM).
